From patent US4537956A, “Antibiotics X-14889 A, C and D” (Hoffmann-La Roche Inc., priority 1983, dated 1985)
≈ marks a conversion by molar mass, not a printed value.

Columns and labels:
Assay in all cases: MIC in vitro, agar diffusion well method
Type in all cases: cell-based
[1] = test system: Bacillus sp. TA ATCC 27860; details: Bacillus sp. TA ATCC 27860, agar diffusion well method
Text: (§1) Minimal inhibitory concentration (mcg/ml)
(§2) *As determined by an agar diffusion well method.

[2] = test system: Paecilomyces varioti ATCC 28820; details: Paecilomyces varioti ATCC 28820, agar diffusion well method
Text: as §1, §2

[3] = test system: Saccharomyces cerevisiae ATCC 4226; details: Saccharomyces cerevisiae ATCC 4226, agar diffusion well method
Text: as §1, §2

[4] = test system: Streptococcus faecium ATCC 8043; details: Streptococcus faecium ATCC 8043, agar diffusion well method
Text: as §1, §2

[5] = test system: Penicillium digitatum ATCC 26821; details: Penicillium digitatum ATCC 26821, agar diffusion well method
Text: as §1, §2

[6] = test system: Bacillus subtilis ATCC 558; details: Bacillus subtilis ATCC 558, agar diffusion well method
Text: as §1, §2

[7] = test system: Bacillus sp. E ATCC 27359; details: Bacillus sp. E ATCC 27359, agar diffusion well method
Text: as §1, §2

[8] = test system: Candida albicans NRRL 477; details: Candida albicans NRRL 477, agar diffusion well method
Text: as §1, §2

[9] = test system: Mycobacterium phlei ATCC 355; details: Mycobacterium phlei ATCC 355, agar diffusion well method
Text: as §1, §2

[10] = test system: Staphylococcus aureus ATCC 6538P
Text: as §1, §2

[11] = test system: Streptomyces cellulosae ATCC 3313; details: Streptomyces cellulosae ATCC 3313, agar diffusion well method
Text: as §1, §2

[12] = test system: Bacillus megaterium ATCC 8011; details: Bacillus megaterium ATCC 8011, agar diffusion well method
Text: as §1, §2

CC[C@H](C(=O)[C@@H](C)[C@@H](O)[C@H](C)[C@H]1O[C@@](O)(CC)[C@@H](C)C[C@@H]1C)[C@H]1O[C@](C)(C23OC(C)C(CC)(CC2C)O3)C[C@@H]1C (stereo partly drawn) [Antibiotic X-14889D]
Minimal inhibitory concentration [1]: 1000 µg/mL (≈ 1760 µM) | Minimal inhibitory concentration [2]: 1000 µg/mL (≈ 1760 µM) | Minimal inhibitory concentration [3]: 1000 µg/mL (≈ 1760 µM) | Minimal inhibitory concentration [4]: 125 µg/mL (≈ 221 µM) | Minimal inhibitory concentration [5]: 1000 µg/mL (≈ 1760 µM) | Minimal inhibitory concentration [6]: 1000 µg/mL (≈ 1760 µM) | Minimal inhibitory concentration [7]: 7.9 µg/mL (≈ 13.9 µM) | Minimal inhibitory concentration [8]: 1000 µg/mL (≈ 1760 µM) | Minimal inhibitory concentration [9]: 1000 µg/mL (≈ 1760 µM) | Minimal inhibitory concentration [10]: 125 µg/mL (≈ 221 µM) | Minimal inhibitory concentration [11]: 1000 µg/mL (≈ 1760 µM) | Minimal inhibitory concentration [12]: 1000 µg/mL (≈ 1760 µM)
